Source: patent US20250049885A1, “HYALURONIC ACID BINDING PEPTIDE AS A THERAPEUTIC TO CONTROL FIBROBLAST ACTIVATION AND FIBROTIC CAPSULE FORMATION” (SOUTH DAKOTA BOARD OF REGENTS, priority 2023, published 2025)
Ends that are not written are not given here.

Experiments:
[1] = test system: normal human adult primary dermal fibroblasts; experiment: Live/Dead fluorescent staining of fibroblasts cultured on functionalized surfaces; assay type: cell-based
Experimental: (§1) FIGS. 2A-C depict assessment of the cytocompatibility of the peptide treated surfaces using Live/Dead and PrestoBlue assays. Presto Blue assay is a measure of cellular metabolic activity. FIG. 2A is a color image of a cell culture: Calcein-AM (green) and Propidium Iodide (red) were used to stain for live and dead cells respectively.
(§2) Surface functionalization was done with 2% APTMS and 1 mM HABP. 2% APTMS (in 2-propanol) was treated on the surface for 6 hours in a wet chamber at room temperature. Following the end of the culture period, three washes with DI H2O were used to remove the residual APTMS. A 1 mM HABP in DI H2O solution was added to the surface and left overnight at 4° C. in the wet chamber. After the peptide treatment is completed, the surfaces were rinsed 5 times with PBS for 5 minutes each. These functionalized surfaces were used for HA binding verification and cell seeding experiments. Two other experimental groups were established: one with only the APTMS treatment, and one with no surface treatment (Table 2).
(§3) Human primary dermal fibroblasts (HDFs) were cultured in a culture media consisting of DMEM, 10% fetal bovine serum (FBS), and 1% penicillin-streptomycin (10,000 IU/mL). The cells were rinsed with warm 1×PBS to remove any traces of FBS from the surface, and a 0.25% trypsin/EDTA treatment was used to detach the cells from the culture flask at 37° C. for 5 minutes. 4 mL of fresh media was added to the cells to inhibit the trypsin, and the suspended cells were withdrawn from the flask, counted using a hemocytometer, and added to a 15 ml centrifuge tube. The cells were centrifuged for 5 minutes at 1500 rpms, and the media was withdrawn and replaced with a calculated amount of fresh media in which the cells were resuspended. The cells were added to the functionalized MatTek surfaces, and after 6 hours, 2 mL of media containing 100 μg/mL ascorbic acid was added. The cells were cultured for 48-96 hours before further experimentation was conducted. […]

[2] = as above; assay type: cell-based, human; settings: human; fibroblasts cultured on functionalized surface; read-out: Cell viability (Live/Dead)
Experimental: as §1, §2, §3

[3] = test system: Col1 fibers deposited by dermal fibroblasts; experiment: Type I Collagen immunostaining and fiber analysis (CT-Fire); assay type: cell-based, human; settings: p-value<0.01
From the text: FIGS. 5A-G show Type I Collagen immunostaining results. FIG. 5A is a color cell culture stain: Fluorescent images of Col1 at 20× magnification. The scale bar represents 100 μm. FIG. 5B is a color image showing CT-Fire overlays of Col1 fibers from the above images, where different fiber characteristics are shown via different coloration. FIG. 5C is a graphical representation of the distribution of the number of Col1 fibers in each treatment group. FIG. 5D is a graphical representation of the distribution of Col1 fiber lengths in each treatment group. There is a notable difference between the APTMS group and the Untreated and HABP groups. FIG. 5E is a graphical representation of the measurement of fiber straightness. […] The closer the value is to one, the straighter individual fibers within the treatment groups are. FIG. 5F is a graphical representation of the Col1 fiber width comparison between treatment groups. […]
Immunostaining was done using α-SMA (D4K9N, Cell Signal) and Type I collagen primary antibodies. […] After this point, all further staining was conducted in the dark to preserve fluorescence. […]
Immunostaining for Type I Collagen (Col1) was done to determine the impact of the HABP surface treatment on ECM formation. […] Col1 fibers were analyzed and the analysis found significant differences in fiber angle, straightness, and width.

[4] = test system: primary dermal fibroblasts; experiment: Cell morphology and alignment on functionalized surfaces (brightfield); assay type: cell-based, human; settings: vs cells on the other surface groups
Experimental: FIGS. 3A-B depicts primary dermal fibroblasts seeded at 50.000 cells/154 mm^2 and incubated for 10 days on HABP and Scrambled HABP functionalized surfaces. APTMS surfaces were treated with 2% APTMS only and Untreated surfaces had no treatment other than PBS rinse. […] Decellularization occurred on Day 11. (Representative of average and standard deviation; N=3; scale bar represents 100 μm). […] (Representative of average and standard deviation; N=6).
APTMS functionalized and untreated experimental groups were established.
Untreated and HABP functionalized surfaces did have some fibroblasts with higher levels of alignment, but the majority of fibroblast cells in those groups maintained a similar distribution of alignment to the APTMS cultures.

Row | Compound | Cell viability vs control groups (Live/Dead) ([1]; HABP vs APTMS treated and untreated surfaces) | Cell viability (Live/Dead) ([1]; fibroblasts cultured on functionalized surface) [%] | viability [2] [%] | Col1 fiber width narrower than untreated cultures [3] [%] | Cell morphology [4]
1 | GAHWQFNALTVR [HABP, GAHWQFNALTVR] | no significant difference | 98.9 | 98.9 |  | 
2 | CO[Si](CCCN)(OC)OC [APTMS, 3-aminopropyltrimethoxysilane] |  |  |  | 5 | slightly stressed morphology
